Source: patent US20230381148A1, “HDAC6 INHIBITORS FOR TREATMENT OF METABOLIC DISEASE AND HFPEF” (Tenaya Therapeutics, Inc., priority 2021, published 2023)

Test system: HFD/L-NAME mice
Assay: HFD/L-NAME HFpEF mouse model, TYA-11018 versus Empagliflozin for 9 weeks
Assay type: in vivo
Settings: TYA-11018 15 mg/kg, Empagliflozin 10 mg/kg
Experimental: After HFpEF phenotypes were established, mice received 15 mg/kg TYA-11018 or 10 mg/kg Empagliflozin, or vehicle orally once daily for 9 weeks. Health monitoring was performed weekly with body weights recorded. Glucose tolerance test was performed after 1st dose. Cardiac function was recorded by echocardiography after treatment for 9 weeks. End diastolic pressure (EDP) was measured by PV-Loop at terminal at 9 weeks after dosing.
Animals: Cohort of mice with established HFpEF phenotypes and age/sex matched wild type controls were used for dosing study. […] After acclimation for 1 week, one group of mice was fed with high fat diet containing 0.07% L-NAME (LabDiet 5G5V, St Louis, MO) for 15 weeks. The control group of mice were fed with normal chow (LabDiet 5053, St Louis, MO). […] Animals were housed in an animal research facility in accordance with the National Research Council of the National Academies guidelines for the care and use of laboratory animals.
A second group of mice was fed with standard chow for controls.
Transthoracic echocardiography was performed using a VisualSonics Vevo 2100 system equipped with MS400 transducer (Visual Sonics, Toronto, ON). LVEF and other indices of systolic function were obtained from short-axis M-mode scans at the midventricular level, as indicated by the presence of papillary muscles, in conscious, gently restrained mice. […]
Intraperitoneal glucose-tolerance tests were performed by injection of glucose (2 g/kg in saline) after 6 hour fasting (from 7 a.m. to 1 p.m.). Tail blood glucose levels (mg/dL) were measured by AimStrip Plus blood glucose strips used with the AimStrip Plus blood glucose monitoring system (Germaine Laboratories, San Antonio, TX) at 0 (baseline, before glucose dose), 15, 30, 45, 60 and 120 minutes after glucose administration.
The trachea was exposed by a midline incision from the base of the throat to just above the clavicle. […] The hemodynamic parameters were then recorded in close-chest mode. […]

SMILES: OC[C@H]1O[C@@H](c2ccc(Cl)c(Cc3ccc(O[C@H]4CCOC4)cc3)c2)[C@H](O)[C@@H](O)[C@@H]1O [Empagliflozin, empagliflozin]
- E/A ratio: decreased
- E/e′ ratio: decreased
- end diastolic pressure: reduced end diastolic pressure
